Measured values: US10350262B2, “MCJ agonists and uses therefor” (priority 2015, dated 2019)
“Also recorded” adds a separate entry of the source. No end group written: not given here.

Legend:
MCF7 cells = assay: Viable cell count of MCF7 cells (Trypan blue); type: cell-based, human; conditions: doxorubicin 3 μM
Source text: (§1) FIG. 15A provides results of Western blot analysis for MCJ in MCF7 cells and MCF7/ADR (ADR) cells. Actin was used as loading control. […] Viable cells were counted 2 days later.
(§2) Cell Culture. MCF7 and MCF7/ADR cells were a kind gift from Dr. Ken Cowan (National Cancer Institute, Bethesda, Md.). MCF7/siMCJ cells were generated by stable transfection with a plasmid expressing a shRNA for MCJ (siMCJ) as described in Hatle, K. M., et al., Mol Cell Biol 27, 2952-2966 (2007). All cells were maintained at 37 C, 5% CO2 in RPMI-1640 (Life technologies, Inc., Gaithersburg, Md.) containing 5% FBS.
(§3) Cell count. Cells were trypsinized, washed, and resuspended in medium. Number of viable cells was measured by counting using Trypan blue dye to exclude dead cells (visualized as blue).
(§4) Doxorubicin and peptides treatment in vitro. Doxorubicin (Sigma-Aldrich) was used at 3 μM final concentration. The three different peptides described in the examples (SEQ ID NO: 2, 18 or 6) were resuspended at 10 mM stock concentration in PBS. The peptides were used a different concentration as indicated for each example (1, 10, or 50 μM). Cells were plated the day prior the treatment (18-20 h prior to the treatment). For treatments with peptides only, peptides were added to the plates at the indicated concentrations, and after 2 or 3 days (as indicated for each example) cells were trypsinized, resuspended, and counted. For the treatment with doxorubicin and peptides, cells were pretreated with the corresponding peptide for 4 h prior to adding doxorubicin.
MCF7 cells and MCF7/ADR cells were incubated (using standard procedures) for two days in media alone or in media that included different concentrations of the TAT-N-MCS-MTS polypeptide having the amino acid sequence set forth as: […]

[1] = tested on: mammary tumors in MMTV mice; assay: Doxorubicin treatment in vivo, mammary tumor size in MMTV mice; set-up: species or system mouse; conditions: doxorubicin 2 mg/Kg i.p. every other day for two weeks, n=4
Source text: (§5) Mice. […] MCJ KO mice were crossed with the previously described MMTV-PyMT mice [see: Guy, C. T., et. al., Mol Cell Biol 12, 954-961 (1992)] to generate MCJ KO MMTV mice. Wildtype MMTV mice and MCJ KO MMTV mice were used for the experiments. All mice were housed under sterile conditions at the animal care facility at the University of Vermont. The procedures were approved by the University of Vermont Institutional Animal Care and Use Committee.
Doxorubicin and peptides treatment in vivo. MTV mice and MCJ KO MMTV mice were used to assay response to doxorubicin and MCJ peptides. The treatments were initiated around 2.5-3 months of age when the mammary tumor these mice develop reach 300 mm^3. Doxorubicin was administered intreperitoneal in PBS (100 μl per mouse) at a dose of 2 mg/Kg. TAT-N-MCJ-mts peptide (SEQ ID NO: 6) was administered at the time of doxorubicin by a subcutaneous injection in PBS (100 μl per mouse) at a dose of 10 mg/Kg. Administrations of doxorubicin and peptide were performed every other day for the indicated period of time. Perpendicular tumor diameters were measured using a vernier scale caliper and tumor volume estimated using the formula for ellipsoid (width×high×length)/2. […]
The size of a tumor over time was determined by caliper measurements, and is represented as a percentage relative to the initial size prior to the treatment. p<0.05 as determined by a paired t-test.

MCF7/ADR cells = assay: Viable cell count of MCF7/ADR cells (Trypan blue); type: cell-based, human; conditions: doxorubicin 3 μM, 2 days
Protocol: as §1
(§6) FIG. 16A-B provides graphs showing response to MCJ agonists. […] Cells were harvested 2 days later and viable cells were counted. […] Mice were harvested at day 4. The size of a tumor over time was determined by caliper measurements, and is represented as a percentage relative to the initial size prior to the treatment. p<0.05 as determined by a paired t-test.
as §2, §3, §4
MCF7/ADR cells were incubated (using standard procedures) for three days in media alone or in media plus three different MCJ based polypeptides each at a concentration of 50 μM in media. The cells of set one were incubated in media and served as a control set. The cells of set two were incubated in media that included a 50 μM concentration of a MCJ polypeptide without a targeting agent polypeptide. The amino acid sequence of the N-MCJ polypeptide without a targeting agent polypeptide was […] (SEQ ID NO:2). The cells of set three were incubated in media that included a 50 μM concentration of a TAT-N-MCJ polypeptide. The amino acid sequence of the TAT-N-MCJ polypeptide was: […] (SEQ ID NO:18). […]

[2] = tested on: mammary tumors in MCJ KO MMTV mice; assay: Doxorubicin and peptide treatment in vivo, mammary tumor size in MCJ KO MMTV mice; set-up: species or system mouse
Protocol: as §6, §5
Doxorubicin and peptides treatment in vivo. MTV mice and MCJ KO MMTV mice were used to assay response to doxorubicin and MCJ peptides. The treatments were initiated around 2.5-3 months of age when the mammary tumor these mice develop reach 300 mm^3. […] Perpendicular tumor diameters were measured using a vernier scale caliper and tumor volume estimated using the formula for ellipsoid (width×high×length)/2. […]
The size of a tumor over time was determined by caliper measurements, and is represented as a percentage relative to the initial size prior to the treatment. p<0.05 as determined by a paired t-test. […]

[3] = mouse
Protocol: MCF7/ADR cells were treated with doxorubicin, TAT-N-MCJ-mts peptide alone or in combination. […] Thus, at lower doses, MCJ agonists could overcome chemo-resistance of breast cancer cells in vitro. A study was also performed that tested the effect of the TAT-N-MCJ-mts peptide in combination with chemotherapy in vivo using the MMTV mammary tumor mouse model. […] Therefore MCJ KO MMTV mice were treated with doxorubicin alone or doxorubicin and the TAT-N-MCJ-mts peptide and followed tumor size.

| Molecule | effect on viable cells (MCF7 cells; 2 days) | cell death (MCF7 cells; vs media alone) | tumor size over time [1] | expansion of cells (viable cells) (MCF7/ADR cells) | tumor size over time ([2]; doxorubicin 2 mg/Kg i.p. every other day for two weeks, n=4) | tumor size (percentage relative to initial size) ([2]; doxorubicin alone 2 mg/Kg i.p. at day 0, 2 and 3, harvested day 4, n=3) | toxicity in vivo (abnormality in treated mice) [3] |
| --- | --- | --- | --- | --- | --- | --- | --- |
| COc1cccc2c1C(=O)c1c(O)c3c(c(O)c1C2=O)C[C@@](O)(C(=O)CO)C[C@@H]3O[C@H]1C[C@H](N)[C@H](O)[C@H](C)O1 [doxorubicin] | sensitive to doxorubicin | significant level of cell death | The size of the tumors in MMTV-Py mice was reduced; also recorded: tumor size in MMTV mice decreased over time | no effect on the expansion of MCF7/ADR cells | continued growing or did not shrink; also recorded: less reduction in tumor size; also recorded: did not decrease, and continued to increase over time | continued growing | – |
| YGKKRRQRRGMAARGVIAPVGESLRYAEYLGTRTWVPKGLKSP [TAT-N-MCJ-MTS] | – | – | – | – | – | – | no obvious abnormality was observed |
